Results on 10 compounds are retold here after ChEMBL document CHEMBL1201862, “PubChem BioAssay data set” (2004).

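Protocol summary: plate cells (96-well), add compound at 5 concentrations, incubate 48 h, interpolate endpoints linearly. Here, GI50 denotes the concentration required for 50% inhibition of growth.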 Active and inactive are the calls of the source. Cut-off read from the data, not from the text of the source: active = GI50 up to about 1.1 µM and inactive = higher.

Some test systems named below: A498; LOX IMVI; MDA-N; COLO 205; HCC 2998; HCT-15; U-251; MOLT-4; SR; SK-MEL-28; NCI-H23; Hs-578T; CCRF-CEM; UACC-62; MDA-MB-231; K562; HOP-92; OVCAR-5; OVCAR-4; SF-539.
Holding throughout (assay): inhibition of tumour cell growth, NCI panel, 48 h

Regarding `O=[N+]([O-])C(/C=C(\Cl)[N+](=O)[O-])=C(N1CCCCC1)N1CCCCC1`, the GI50 is 41.4 µM (inactive) with A498; 55.7 µM (inactive) with LOX IMVI; 22.4 µM (inactive) in the experiment with MDA-N; 21.5 µM (inactive) with COLO 205; 44.7 µM (inactive) in the experiment on HCC 2998; 25.3 µM in the experiment on HCT-15. Moreover, the GI50 in the experiment on U-251 was 65 µM (inactive); in the experiment on MOLT-4, 30.7 µM (inactive); in the experiment with SR, 14.1 µM (inactive); with SK-MEL-28 it was 70.8 µM (inactive); in the experiment with NCI-H23, 32.9 µM (inactive); in the experiment with Hs-578T, 58.2 µM (inactive). The GI50 is 13.2 µM (inactive) in the experiment on CCRF-CEM; 18.6 µM (inactive) in the experiment with UACC-62; 92 µM (inactive) in the experiment with MDA-MB-231; 27 µM (inactive) in the experiment on K562; > 100 µM (inactive) with HOP-92; 95.5 µM (inactive) in the experiment with OVCAR-5. The GI50 in the experiment with OVCAR-4 is 23.9 µM (inactive); with SF-539 it was 25.9 µM (inactive).
With `COc1ccc2cc(C(=O)NCCCNC(=O)c3ccc4cc(OC)ccc4c3)ccc2c1`, the GI50 was 44.8 µM (inactive) with A498; > 100 µM (inactive) in the experiment on LOX IMVI; > 100 µM (inactive) with MDA-N; > 100 µM (inactive) with COLO 205; > 100 µM (inactive) in the experiment with HCC 2998; above 100 µM with HCT-15. Moreover, the GI50 was 21.1 µM (inactive) with U-251; > 100 µM (inactive) with MOLT-4; > 100 µM (inactive) in the experiment with SR; > 100 µM (inactive) in the experiment with SK-MEL-28; > 100 µM (inactive) in the experiment on NCI-H23; 34.2 µM (inactive) in the experiment with Hs-578T. For the same compound, the GI50 in the experiment with CCRF-CEM was > 100 µM (inactive); in the experiment on UACC-62, > 100 µM (inactive); with MDA-MB-231 it was 21.1 µM (inactive); in the experiment with K562, > 100 µM (inactive); with HOP-92, 14.7 µM (inactive); in the experiment on OVCAR-5 it was > 100 µM (inactive). Also, the GI50 with OVCAR-4 was 61 µM (inactive); with SF-539, 3.94 µM (inactive).
Consider `O=C(Cc1ccc(Cl)c(Cl)c1)NCCCN1CCN(CCCN2CCCCC2)CC1`, for which the GI50 in the experiment with A498 was 16.4 µM (inactive); in the experiment with LOX IMVI, 14.1 µM (inactive); in the experiment on MDA-N, 2.45 µM (inactive); in the experiment with COLO 205, 13.2 µM (inactive); in the experiment with HCC 2998 it was 2.89 µM (inactive); in the experiment with HCT-15 it was 20.7 µM. In addition, the GI50 in the experiment with U-251 is 15.7 µM (inactive); with MOLT-4, 10.9 µM (inactive); in the experiment on SR it was 11.7 µM (inactive); in the experiment on SK-MEL-28 it was 2.56 µM (inactive); with NCI-H23, 19.8 µM (inactive); in the experiment on Hs-578T, 14.1 µM (inactive). In addition, the GI50 in the experiment with CCRF-CEM was 16 µM (inactive); with UACC-62 it was 3.84 µM (inactive); in the experiment on MDA-MB-231, 12 µM (inactive); in the experiment on K562, 2.17 µM (inactive); in the experiment with HOP-92, 11.1 µM (inactive); in the experiment on OVCAR-5, 20 µM (inactive). The GI50 in the experiment on OVCAR-4 is 37.8 µM (inactive); in the experiment on SF-539 it was 14.2 µM (inactive).
In the case of `CN1CN(c2ccccc2)C2(CCN(CCCC3(c4cccs4)OCCO3)CC2)C1=O`, the GI50 in the experiment with A498 is > 100 µM (inactive); in the experiment on LOX IMVI it was > 100 µM (inactive); in the experiment with MDA-N, > 100 µM (inactive); in the experiment with COLO 205 it was > 100 µM (inactive); in the experiment with HCC 2998 it was > 100 µM (inactive); in the experiment on HCT-15, above 100 µM. The GI50 in the experiment with U-251 was > 100 µM (inactive); in the experiment with MOLT-4, > 100 µM (inactive); with SR, > 100 µM (inactive); in the experiment on SK-MEL-28, > 100 µM (inactive); in the experiment on NCI-H23, 77.6 µM (inactive); in the experiment with Hs-578T, > 100 µM (inactive). In addition, the GI50 is > 100 µM (inactive) in the experiment on CCRF-CEM; > 100 µM (inactive) in the experiment with UACC-62; > 100 µM (inactive) in the experiment on MDA-MB-231; > 100 µM (inactive) with K562; 28.7 µM (inactive) in the experiment with HOP-92; > 100 µM (inactive) with OVCAR-5. For the same compound, the GI50 in the experiment with OVCAR-4 and in the experiment on SF-539 was > 100 µM (inactive) in each case.
Regarding `COC(=O)[C@@H]1CN(C(=O)c2ccccc2)C(=O)N1C(=O)OCc1ccccc1`, the GI50 is > 100 µM (inactive) with A498; > 100 µM (inactive) with LOX IMVI; > 100 µM (inactive) in the experiment with MDA-N; > 100 µM (inactive) with COLO 205; > 100 µM (inactive) in the experiment with HCC 2998; above 100 µM with HCT-15. Further, the GI50 in the experiment on U-251, in the experiment on MOLT-4, in the experiment with SR, in the experiment on SK-MEL-28, with NCI-H23 and with Hs-578T was > 100 µM (inactive) in each case. Moreover, the GI50 with CCRF-CEM, in the experiment with UACC-62, with MDA-MB-231, in the experiment on K562, in the experiment on HOP-92 and with OVCAR-5 was > 100 µM (inactive) each time. The GI50 in the experiment with OVCAR-4 and in the experiment with SF-539 was > 100 µM (inactive) in each case.
In the case of `COc1cc(C2c3cc4c(cc3OC(NNS(=O)(=O)c3ccc(C)cc3)C2C)OCO4)cc(OC)c1OC` (stereo not given), the GI50 with A498 was 1.26 µM (inactive); in the experiment on LOX IMVI, 1.87 µM (inactive); in the experiment on MDA-N, 0.289 µM (active); in the experiment on COLO 205, 2.81 µM (inactive); in the experiment with HCC 2998, 2.94 µM (inactive); with HCT-15, 1.29 µM. The GI50 in the experiment with U-251 was 2.14 µM (inactive); in the experiment with MOLT-4, 1.89 µM (inactive); in the experiment on SR, 0.839 µM (active); in the experiment on SK-MEL-28 it was 2.94 µM (inactive); with NCI-H23 it was 4.8 µM (inactive); with Hs-578T, 1.26 µM (inactive). Also, the GI50 with CCRF-CEM was 1.01 µM (active); in the experiment on UACC-62, 1.36 µM (inactive); in the experiment on MDA-MB-231, 4.24 µM (inactive); in the experiment on K562 it was 0.55 µM (active); in the experiment with HOP-92 it was 2 µM (inactive); with OVCAR-5, 9.14 µM (inactive). The GI50 is 7.59 µM (inactive) in the experiment on OVCAR-4 and 0.984 µM (active) in the experiment on SF-539.
As to `C=CCCCCNC(=O)C[C@@H]1C2=C(CC[C@H]1O[Si](C)(C)C(C)(C)C)N1C(=O)CCC/C=C\C1C2` (stereo not given in full), the GI50 in the experiment with A498 was 15.2 µM (inactive); in the experiment with LOX IMVI, 17 µM (inactive); with MDA-N it was 16.3 µM (inactive); in the experiment on COLO 205 it was 13.6 µM (inactive); in the experiment with HCC 2998, 10.4 µM (inactive); with HCT-15 it was 14 µM. In addition, the GI50 in the experiment on U-251 is 13.5 µM (inactive); with MOLT-4 it was 5.89 µM (inactive); in the experiment with SR it was 5.75 µM (inactive); in the experiment with SK-MEL-28 it was 15 µM (inactive); in the experiment on NCI-H23, 13.7 µM (inactive); in the experiment with Hs-578T, 16.1 µM (inactive). Also, the GI50 in the experiment with CCRF-CEM is 10.6 µM (inactive); in the experiment with UACC-62, 12.9 µM (inactive); with MDA-MB-231, 13.3 µM (inactive); in the experiment with K562, 5.3 µM (inactive); in the experiment on HOP-92 it was 11 µM (inactive); in the experiment on OVCAR-5 it was 16 µM (inactive). Besides, the GI50 in the experiment on OVCAR-4 was 12.2 µM (inactive); in the experiment on SF-539 it was 17.5 µM (inactive).
For the compound `COc1ccccc1CC1(O)OC(=O)c2ccccc21` (stereo not given), the GI50 with A498 is > 100 µM (inactive); in the experiment with LOX IMVI, > 100 µM (inactive); with MDA-N, > 100 µM (inactive); in the experiment on COLO 205, > 100 µM (inactive); in the experiment on HCC 2998 it was > 100 µM (inactive); in the experiment on HCT-15 it was above 100 µM. In addition, the GI50 in the experiment on U-251, in the experiment on MOLT-4, with SR, in the experiment on SK-MEL-28, with NCI-H23 and in the experiment with Hs-578T was > 100 µM (inactive) each time. In addition, the GI50 in the experiment on CCRF-CEM, in the experiment with UACC-62, in the experiment on MDA-MB-231, in the experiment with K562, in the experiment on HOP-92 and in the experiment on OVCAR-5 was > 100 µM (inactive) each time. In addition, the GI50 in the experiment with OVCAR-4 and in the experiment on SF-539 was > 100 µM (inactive) throughout.
In the case of `CCOC(=O)N(NC(=O)NC(C)C)c1ccccc1`, the GI50 in the experiment on A498 is > 100 µM (inactive); with LOX IMVI, > 100 µM (inactive); with MDA-N, > 100 µM (inactive); with COLO 205, > 100 µM (inactive); in the experiment with HCC 2998 it was 84.1 µM (inactive); in the experiment with HCT-15, above 100 µM. In addition, the GI50 in the experiment on U-251, in the experiment on MOLT-4, with SR, in the experiment on SK-MEL-28, in the experiment on NCI-H23 and in the experiment on Hs-578T was > 100 µM (inactive) in each case. Further, the GI50 in the experiment on CCRF-CEM, in the experiment on UACC-62, in the experiment with MDA-MB-231, with K562, in the experiment with HOP-92 and in the experiment with OVCAR-5 was > 100 µM (inactive) in each case. The GI50 in the experiment with OVCAR-4 and with SF-539 was > 100 µM (inactive) each time.
Regarding `CC(=O)OCC1OC(N2C(S)=C(C#N)C(c3ccco3)C(C(C)=O)=C2c2ccccc2)C(OC(C)=O)C(OC(C)=O)C1OC(C)=O` (stereo not given), the GI50 in the experiment with A498 is > 100 µM (inactive); with LOX IMVI it was 32.1 µM (inactive); in the experiment with MDA-N it was 26.2 µM (inactive); with COLO 205, 64.9 µM (inactive); in the experiment with HCC 2998 it was > 100 µM (inactive); in the experiment on HCT-15, above 100 µM. For the same compound, the GI50 in the experiment with U-251 is 39.3 µM (inactive); in the experiment on MOLT-4, > 100 µM (inactive); in the experiment with SR, > 100 µM (inactive); in the experiment on SK-MEL-28 it was 30.1 µM (inactive); in the experiment on NCI-H23, 64.4 µM (inactive); in the experiment on Hs-578T it was 17.7 µM (inactive). Further, the GI50 in the experiment with CCRF-CEM is 28.3 µM (inactive); in the experiment with UACC-62, 34 µM (inactive); in the experiment on MDA-MB-231, > 100 µM (inactive); in the experiment with K562 it was > 100 µM (inactive); in the experiment on HOP-92, 32.9 µM (inactive); in the experiment on OVCAR-5 it was 62.4 µM (inactive). The GI50 with OVCAR-4 is 13.4 µM (inactive); with SF-539, 78.5 µM (inactive).
